The values below come from patent US5798372A, “Method for preventing onset of restenosis after angioplasty employing a retinoid” (Allergan, priority 1997, dated 1998).

In data set [1] the test system is smooth muscle cells (canine aorta). As to the kind of experiment: Serum (1%)-induced smooth muscle cell proliferation, 3H-thymidine incorporation. The data set is classed as cell-based. Particulars: Canis lupus familiaris; serum induced; Table 3; read-out: ED50 FOR SMOOTH MUSCLE CELLS, Serum. As for the experimental part:
(§1) The effect of 1% serum on DNA synthesis by endothelial or smooth muscle cells using ^3 H-thymidine incorporation was measured. For measuring the effectiveness of retinoids in inhibiting endothelial or smooth muscle cell proliferation induced by certain mitogens, i.e., serotonin or β-FGF the indicated concentrations were added to the media instead of 1% serum. Primary cells isolated from canine aorta were used for these studies. Unlike the typical cell lines (e.g. NIH 3T3 cells, etc.) 6-7 weeks are required to isolate and grow these primary cells in sufficient number to perform a single experiment. For the following studies, the primary cells (passages 2-4) were plated on 35×10 mm tissue culture dishes in 10% fetal bovine serum (FBS) and incubated. After 72 hours of growth the medias was replaced with 0.1% FBS for synchronization and incubated for additional 72 hours. Then 1% serum was added and incubated for 20 hours followed by the addition of 1μCi of ^3 H-thymidine. Four hours after the addition of 3H-thymidine the DNA was precipitated and the amount of ^3 H-thymidine incorporated was measured. This value is reported as the serum or serotonin or β-FGF stimulated value for cellular proliferation and is expressed as a percentage of baseline ^3 H-thymidine incorporation.
(§2) To examine the antiproliferative effect of retinoids, they were dissolved in 100% ethanol and then added at the indicated final concentrations. The compounds were added at the time of adding 1% serum or serotonin or β-FGF to stimulate the cells. (The maximal final concentration of ethanol in culture media was 1% which is non-cytotoxic to endothelial or smooth muscle cells). After 20 hours of incubation with retinoids and 1% serum or serotonin or β-FGF, the ^3 H-thymidine incorporation was measured.
(§3) In this experimental dosages ranging between 0.01 and 100 μM were evaluated for the effect of AGN 191183 on cell growth.
(§4) The other retinoids, disclosed above, were also tested for their effect on smooth muscle and endothelial cell growth at the same dosages as for AGN 191183. Table 2 reports the ED50 for each of these retinoids.
On the technique in general: Dividing cells build labelled thymidine or BrdU into new DNA.

Data set [2] shares this test system. As to the kind of experiment: Serotonin-induced smooth muscle cell proliferation, 3H-thymidine incorporation. Format: cell-based. Particulars: Canis lupus familiaris, Table 3, read-out: ED50 FOR SMOOTH MUSCLE CELLS, Serotonin. As for the experimental part: as §1
(§5) To examine the antiproliferative effect of retinoids, they were dissolved in 100% ethanol and then added at the indicated final concentrations. The compounds were added at the time of adding 1% serum or serotonin or β-FGF to stimulate the cells. […] After 20 hours of incubation with retinoids and 1% serum or serotonin or β-FGF, the ^3 H-thymidine incorporation was measured.
(§6) Certain of the retinoids were then tested for mitogen-induced cellular proliferation, utilizing serotonin (5HT) and β-FGF as such mitogens. In this testing, as reported in Table 3, below, the same dosages were evaluated for their effect on mitogen-induced cellular proliferation (The results are reported as ED50 and compared to the ED50 for serum-induced smooth muscle and endothelial cell growth).

For data set [3], the system named is endothelial cells (canine aorta). As to the kind of experiment: Serum (1%)-induced endothelial cell proliferation, 3H-thymidine incorporation. Format: cell-based. As to conditions: Canis lupus familiaris, Endothelial cell; serum induced; Table 3; read-out: ED50 FOR ENDOTHELIAL Cells, Serum. How it is done:
as §1, §2, §3, §4

Data set [4] deals with smooth muscle cells (canine aorta). Description: β-FGF-induced smooth muscle cell proliferation, 3H-thymidine incorporation. Format: cell-based. As to conditions: Canis lupus familiaris, Table 3, read-out: ED50 FOR SMOOTH MUSCLE CELLS, β-FGF. How it is done:
as §1, §5, §6

For data set [5], the system named is endothelial cells (canine aorta). As to the kind of experiment: Serotonin-induced endothelial cell proliferation, 3H-thymidine incorporation. The data set is classed as cell-based. Particulars: Canis lupus familiaris, Table 3, read-out: ED50 FOR ENDOTHELIAL Cells, Serotonin. As for the experimental part: as §1, §5, §6
For data set [6] the test system is unchanged. Description: β-FGF-induced endothelial cell proliferation, 3H-thymidine incorporation. The data set is classed as cell-based. Particulars: Canis lupus familiaris, Table 3, read-out: ED50 FOR ENDOTHELIAL Cells, β-FGF. As for the experimental part: as §1, §5, §6
For data set [7], the system named is cellular proliferation at the site of vascular injury (balloon angioplasty). Description: Rabbit model of angioplasty-induced arterial injury, in vivo 3H-thymidine incorporation. As to conditions: 10 mg/kg IP daily. The arrangement: species or system New Zealand white rabbits. From the text: There has been interest in attempting to reduce the incidence of restenosis by minimizing the trauma of angioplasty. […] However, a similar relationship between the degree of injury and restenosis has not been documented with conventional balloon angioplasty. In order to better characterize the time course and degree of cellular proliferation resulting from vascular injury, the effect of retinoids on the in vivo incorporation of 3H-thymidine in a rabbit model of arterial injury was studied. Varying degrees of injury were produced including both simple de-endothelialization of the intima as well as stretch injury of the vessel by conventional angioplasty.
3.0-3.5 kg male, New Zealand white rabbits underwent standardized femoral artery injury. Arterial access was obtained through the right carotid artery which was ligated after the procedure. Heparin (100 U/kg IV) was given once arterial access was obtained. Injury was accomplished by the following method:
1. […]
Arterial specimens were then thawed and stripped of all adventitia. […] The samples were neutralized with 0.5N HCl and counted using multisol scintillation fluid.
Using the above described model of angioplasty induced restenosis it was determined whether chronic treatment with all trans retinoic acid can attenuate the cellular proliferation of the site of vascular injury. […]

For the compound `CC1=C(/C=C/C(C)=C/C=C/C(C)=C\C(=O)O)C(C)(C)CCC1` [AGN 190013, (2Z,4E,6E,8E)-3,7-dimethyl-9-(2,6,6-trimethyl-1-cyclohexen-1-yl)-2,4,6,8-nonatetraenoic acid], the IC50 is 7.4 µM in data set [1]; 5 µM in data set [2]; 31.5 µM in data set [3]; over 100 µM in data set [4]; 0.0092 µM in data set [5]; 0.009 µM in data set [6].

Turning to `CC1=C(/C=C/C(C)=C/C=C/C(C)=C/C(=O)O)C(C)(C)CCC1` [AGN 100335, (E)-3,7-dimethyl-9-(2,6,6-trimethyl-1-cyclohexen-1-yl)-2,4,6,8-nonatetraenoic acid], the IC50 in data set [1] was 35.8 µM; in data set [2] it was 0.047 µM; in data set [3] it was 28 µM; in data set [4] it was over 100 µM; in data set [5], 0.025 µM; in data set [6], 0.009 µM. Moreover, the “animals receiving retinoic acid that died before the study was completed” value in data set [7] is on record as 2 out of 4. The “inhibition of cellular proliferation following angioplasty” value in data set [7] (6 days pretreatment and days 7-9, very small number of animals) was “appeared to inhibit the development of cellular proliferation following angioplasty”.
